In PubChem BioAssay (NCI):
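In this assay, cells in 96-well plates receive the compound at five concentrations for 48 hours. Endpoints are linearly interpolated between the surrounding concentrations. GI50 marks 50% less growth. TGI is the concentration that stops growth completely.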

Assays:
Assay in all cases: inhibition of tumour cell growth, NCI panel, 48 h
NCI-H460 lung = system: NCI-H460 lung
SNB-75 CNS = system: SNB-75 CNS
SNB-19 CNS = system: SNB-19 CNS
HOP-92 NSCLC = system: HOP-92 NSCLC
SR leukemia = system: SR leukemia
HOP-62 NSCLC = system: HOP-62 NSCLC
SK-MEL-28 melanoma = system: SK-MEL-28 melanoma
NCI-H226 lung = system: NCI-H226 lung
IGROV1 ovarian = system: IGROV1 ovarian
HCT-116 colon = system: HCT-116 colon

SMILES	TGI (NCI-H460 lung)	TGI (SNB-75 CNS)	TGI (SNB-19 CNS)	TGI (HOP-92 NSCLC)	TGI (SR leukemia)	TGI (HOP-62 NSCLC)	TGI (SK-MEL-28 melanoma)	TGI (NCI-H226 lung)	TGI (IGROV1 ovarian)	TGI (HCT-116 colon)	GI50 (NCI-H460 lung)	GI50 (SNB-75 CNS)	GI50 (SNB-19 CNS)	GI50 (HOP-92 NSCLC)	GI50 (SR leukemia)	GI50 (HOP-62 NSCLC)	GI50 (SK-MEL-28 melanoma)	GI50 (NCI-H226 lung)	GI50 (IGROV1 ovarian)	GI50 (HCT-116 colon)
NCCOCC(N)C(=O)O (stereo unspecified)	> 100 µM	> 100 µM	> 100 µM	> 100 µM	> 100 µM	> 100 µM	> 100 µM	> 100 µM	> 100 µM	> 100 µM	–	–	–	–	–	–	–	–	–	–
CS(=O)(=O)NC12CCC(c3ccccc31)c1ccccc12	> 100 µM	> 100 µM	> 100 µM	> 100 µM	> 100 µM	> 100 µM	> 100 µM	> 100 µM	> 100 µM	> 100 µM	–	–	–	–	–	–	–	–	–	–
CCOC(=O)C1CCCCN1CCc1c[nH]c2ccccc12 (stereo unspecified)	> 100 µM	> 100 µM	> 100 µM	> 100 µM	> 100 µM	> 100 µM	> 100 µM	> 100 µM	> 100 µM	> 100 µM	–	–	–	–	–	–	–	–	–	–
O=C1CC(n2cccc2)c2c(Br)sc(Br)c21 (stereo unspecified)	36.6 µM	35.1 µM	28.1 µM	33.1 µM	12 µM	53.4 µM	41.2 µM	42.2 µM	32.7 µM	28.7 µM	–	–	–	–	–	–	–	–	–	–
c1ccc(-c2nnn(CCN3CCCCC3)n2)cc1	> 100 µM	> 100 µM	> 100 µM	> 100 µM	> 100 µM	> 100 µM	> 100 µM	> 100 µM	> 100 µM	> 100 µM	–	–	–	–	–	–	–	–	–	–
Cc1[nH]c(=O)[nH]c(=S)c1C(=O)Nc1cccc2cc3ccccc3cc12	> 100 µM	> 100 µM	> 100 µM	> 100 µM	> 100 µM	> 100 µM	> 100 µM	> 100 µM	> 100 µM	> 100 µM	–	–	–	–	–	–	–	–	–	–
CCC(CC(C)C)Nc1ccc(NC(CC)CC(C)C)cc1 (stereo unspecified)	40.9 µM	38.2 µM	29.4 µM	24.7 µM	39.7 µM	33.3 µM	28.1 µM	29.9 µM	78.7 µM	28.3 µM	17.5 µM	15.4 µM	15.9 µM	10.7 µM	15.1 µM	18.6 µM	13.7 µM	15.3 µM	27.1 µM	14.1 µM
S=C(NCc1ccccc1)N/N=C/c1ccccn1	> 75.6 µM	47.8 µM	> 100 µM	52.7 µM	> 21 µM	71.5 µM	> 100 µM	17.7 µM	> 62.8 µM	15.4 µM	–	–	–	–	–	–	–	–	–	–
C=C1C(=O)O[C@H]2[C@H]3O[C@@H](C[C@@H]12)[C@](C)(O)CC[C@@H]1O[C@@]1(C)CCC[C@H]3C	89 µM	96.1 µM	> 100 µM	36.4 µM	> 100 µM	> 100 µM	> 100 µM	60 µM	46.2 µM	27.8 µM	–	–	–	–	–	–	–	–	–	–
CC(=O)Nc1cc(Nc2cc(=O)[nH]c(=O)[nH]2)ccc1C	> 100 µM	> 100 µM	> 100 µM	> 100 µM	> 100 µM	> 100 µM	> 100 µM	> 100 µM	> 100 µM	> 100 µM	–	–	–	–	–	–	–	–	–	–
NS(=O)(=O)c1ccc(NNc2c3ccccc3nc3c(C(=O)Nc4ccc(S(=O)(=O)Nc5ncccn5)cc4)cccc23)cc1	> 25 µM	> 25 µM	> 25 µM	> 25 µM	> 25 µM	> 25 µM	> 25 µM	> 25 µM	> 25 µM	> 25 µM	–	–	–	–	–	–	–	–	–	–
CCOP(=O)(OCC)C(C)(CC)NC(=O)C(C(F)(F)F)C(F)(F)F (stereo unspecified)	> 100 µM	> 100 µM	> 100 µM	> 100 µM	> 100 µM	> 100 µM	> 100 µM	> 100 µM	> 100 µM	> 100 µM	–	> 71.6 µM	–	–	–	–	–	–	–	–
N/C(=N\Nc1ccc(S(N)(=O)=O)cc1)c1cnccn1	> 100 µM	> 100 µM	> 100 µM	> 100 µM	> 100 µM	> 100 µM	> 100 µM	> 100 µM	> 100 µM	> 100 µM	–	–	–	–	–	–	–	–	–	–
CCOP(=O)(OCC)/C(C#N)=C/c1cccn1Cc1ccccc1	> 100 µM	> 100 µM	> 100 µM	36.9 µM	> 100 µM	> 100 µM	39.5 µM	51.8 µM	> 100 µM	39.7 µM	–	–	–	–	–	–	–	–	–	–
O=C(/C=C/c1cccs1)c1ccccc1Cl	40.8 µM	28.9 µM	28.9 µM	97.5 µM	> 47.6 µM	32.1 µM	38.8 µM	> 65.7 µM	> 65 µM	25.7 µM	–	–	–	–	–	–	–	–	–	–
O=C(NNCc1ccc(Cl)cc1)Nc1cccc2ccccc12	> 100 µM	> 100 µM	> 100 µM	> 100 µM	> 100 µM	> 100 µM	> 100 µM	> 100 µM	> 100 µM	> 100 µM	–	–	–	–	–	–	–	–	–	–
CC1OC2OC3C(OCC(O)C3O)OC(=O)[C@]34CCC(C)(C)CC3C3=CCC5[C@@]6(C)C[C@H](O)[C@H](OC7OC(CO)C(O)C(O)C7OC7OCC(OC(=O)CC(C)(O)CC(=O)OC1C(OC1OC(CO)C(O)C(O)C1O)C2O)C(O)C7O)[C@@](C)(CO)C6CC[C@@]5(C)[C@]3(C)CC4 (stereo partly specified)	22.7 µM	22.9 µM	22.9 µM	21.6 µM	17 µM	8.75 µM	6.22 µM	34 µM	16.2 µM	16.5 µM	–	–	–	–	–	–	–	–	–	–
Cc1ccc(/C(O)=C/c2nc3ccc([N+](=O)[O-])cc3nc2/C=C(\O)c2ccc(C)cc2)cc1	> 100 µM	36.8 µM	> 77.1 µM	> 100 µM	> 100 µM	75.8 µM	> 100 µM	> 100 µM	> 100 µM	> 100 µM	–	–	–	–	–	–	–	–	–	–
O=C(Nc1cccc(-n2cc(-c3ccncc3)c(-c3ccc(O)c(Cl)c3)n2)c1)c1cccc(C(F)(F)F)c1	> 100 µM	> 100 µM	> 100 µM	4.11 µM	8.1 µM	> 100 µM	> 100 µM	> 100 µM	> 100 µM	> 100 µM	3.42 µM	2.07 µM	9.36 µM	0.434 µM	1.6 µM	8.86 µM	4.63 µM	7.17 µM	9.88 µM	3.24 µM
O=C(CC1Sc2ccccc2NC1=O)Nc1ccc(Cl)cc1 (stereo unspecified)	> 100 µM	> 100 µM	> 100 µM	67.2 µM	> 100 µM	> 100 µM	> 100 µM	> 100 µM	> 100 µM	> 100 µM	–	–	–	–	–	–	–	–	–	–
